From PMC9849758, “Chemically diverse activity-based probes with unexpected inhibitory mechanisms targeting trypsin-like serine proteases” (Frontiers in Chemistry, 2023) come the findings set out here.

Entries after “also recorded” stand apart in the source; their conditions may differ. Where a name gives a salt, the structure may show the parent alone.

Common to all, as to format: biochemical
Assay [1] concerns the target T1, Trypsin-3 (Homo sapiens, UniProt P35030).
T1 sequence (P35030 1-304): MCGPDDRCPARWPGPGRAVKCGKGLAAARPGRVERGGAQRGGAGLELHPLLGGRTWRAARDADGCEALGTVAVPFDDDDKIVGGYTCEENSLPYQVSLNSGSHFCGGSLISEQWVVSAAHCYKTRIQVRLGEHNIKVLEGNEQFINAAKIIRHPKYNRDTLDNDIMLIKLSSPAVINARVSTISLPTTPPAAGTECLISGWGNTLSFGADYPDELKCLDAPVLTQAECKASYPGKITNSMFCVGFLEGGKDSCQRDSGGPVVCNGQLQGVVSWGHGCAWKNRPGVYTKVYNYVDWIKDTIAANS
Description: Kinetic progress curves (kapp, K1, KI*, mechanism). Details: purchased R&D. The following applies: for Trypsin-3 kapp: apparent second-order rate constant from progress curves; for Trypsin-3 kapp / Ki: mean ± SD; for Trypsin-3 mechanism of inhibition: defined by the progress curves: slow-binding (Rev.) or irreversible (Irrev.). The method, then: (§1) Because the compounds described in this paper were previously described as irreversible inhibitors, the IC50 value is inversely correlated with the second-order rate constant of inactivation. For a simple pseudo-first-order inactivation process, the activity after incubation with inhibitor (vi) varies with the inhibitor concentration (i), as described in the following equation: vi=v0·e^−kit where v0 is the activity in the absence of an inhibitor, k is the second-order rate constant of inactivation, and t is the time. The inactivation rate constant was determined from the time course of inhibition.
(§2) Kinetic assays were performed in the following manner. The inhibitor was mixed with the substrate, and the buffer solution with the enzyme was added at the time zero. The progress curves show the release of pNA or AMC as a function of time. Initially, no inhibitor is bound to the enzyme, and the tangent to the progress curve (dA/dt) is proportional to the free enzyme concentration. The free enzyme concentration decreases over time due to inhibitor binding kinetics, as described above. Progress curves were recorded in pseudo-first-order conditions ([I]0>>[E]0) and with less than 10% conversion of the substrate during the entire time course. In these conditions, dA/dt decreases exponentially with time. The progress curves were fitted with the integrated rate equation with GraFit7 to yield a value for kobs, a pseudo-first-order rate constant. At=Ao+vs∙t+vi−vs∙1−e^−kobs∙t/kobs where At is the absorbance at time t, A0 is the absorbance at time zero, vi is the initial rate and vs is the velocity at the steady-state.
(§3) The apparent second-order rate constant (kapp) was calculated from the slope of the linear part of the plot of kobs vs. the inhibitor concentration ([I]0). In the case of competition between the inhibitor and the substrate, kapp is smaller than the “real” second-order rate constant k discussed above because a certain fraction of the enzyme is present as an enzyme-substrate complex. kapp depends on the substrate concentration used in the experiment, as described by [Lambeir et al. (1996)].
(§4) The apparent equilibrium constants were obtained from the following equations, vi/vo=1/1+I/K1; vS/vo=1/1+I/KI* where vi is the initial rate, vs is the steady-state velocity and vo is the uninhibited initial rate.

Assay [2] deals with T2, uPA (Homo sapiens, UniProt P00749).
T2 construct: purchased HYPHEN BioMed
Description: Kinetic progress curves (kapp, mechanism). Conditions: for uPA mechanism of inhibition: defined by the progress curves: slow-binding (Rev.) or irreversible (Irrev.); for uPA kapp: apparent second-order rate constant from progress curves, mean ± SD. The method, then:
as §1, §2, §3, §4

Assay [3] concerns the target T2, uPA. The experiment in a line: Jump dilution, determination of inhibition type. The following applies: inhibitor at 10 times IC50, 15 min, diluted 10-fold or 100-fold; Rev./Irrev. The method, then: The dissociation of the enzyme-inhibitor complex was monitored by substrate hydrolysis over time ([Joossens et al., 2006]).
Because ABPs are designed to be irreversible serine protease inhibitors, the IC50 is exclusively used as a first discriminatory evaluation. When an inhibitor is irreversible, its IC50 value not only depends on the substrate and enzyme concentration but also on the time of incubation with the enzyme before the reaction is started by adding the substrate. […] The progress curve in the presence of an irreversible inhibitor will show final velocities equal to zero (Figure 6C). In contrast, for a reversible inhibitor, progress curves have a non-zero final steady-state velocity (Figure 6A) ([McWhirter, 2021]). To corroborate the inhibitory mechanism of the compounds, jump-dilution assays were performed. These use an inhibitor concentration of 10-fold the IC50 for the incubation, and a posteriori, the reaction mixture is diluted 10-fold or 100-fold before adding the substrate. In the case of an irreversible inhibitor, enzymatic activity is not regained (Figure 6D), whereas, in the case of a reversible compound, a slow release of the inhibitor and a gradual increase of the enzymatic activity rate is observed (Figure 6B) ([Copeland, 2013]; [McWhirter, 2021]). The jump-dilution assays confirmed the behavior described by the progress curves.
2.2.2 Jump dilution results
Supplementary Table 2. Jump dilution of selected alkyne and desthiobiotin probes against a panel of trypsin-like serine proteases. […]
# R R DtBa 3 tryptase Thrombin uPA CatG
32b H Alk Irrev. Irrev. Rev. Irrev. Rev.
45b DtB Irrev. Irrev. Rev. N.D. N.D.
33b Alk Irrev. Irrev. Rev. Irrev. Rev.
46b Cl DtB Irrev. Irrev. Rev. N.D. N.D.
34b H Alk Rev. Rev. Rev. Irrev. Rev.
50b DtB Rev. Rev. Rev. Irrev. Rev.
35b Alk Rev. Rev. Rev. Irrev. Rev.
52b NHCOMe DtB Rev. Rev. Rev. Irrev. Rev.
36b Alk Rev. Rev. Rev. Irrev. Rev.
54b Cl DtB Rev. Rev. Rev. Irrev. Rev.
37b Alk Irrev. Irrev. N.D. Irrev. Irrev.
55b H DtB Irrev. Irrev. N.D. Irrev. Irrev.
38b Alk Irrev. Irrev. N.D. Irrev. Irrev.
56b NHCOMe DtB Irrev. Irrev. N.D. Irrev. Irrev.
39b Alk Irrev. Irrev. N.D. Irrev. Rev.
57b Cl DtB Irrev. Irrev. N.D. Irrev. Rev.
41b H Alk Irrev. Irrev. Irrev. N.D. N.D.
31b Pro-Lys H Alk Irrev. Irrev. Irrev. Irrev. N.D. a Alk: ABP precursor bearing an alkyne; DtB: desthiobiotin probe b Panel of serine proteases abbreviations: urokinase plasminogen activator (uPA), cathepsin G (catG) N.D.: IC50 is greater than 10µM, and jump dilution was not performed
2.2.3 Progress curves and Jump dilution experiments
Kinetic assays were performed in the following manner. The inhibitor was mixed with the substrate, and the buffer solution with the enzyme was added at the time zero. The progress curves show the release of para-nitroaniline (pNA) or 7-amino-4-methyl coumarin (AMC) as a function of time.
To monitor the dissociation of the inhibitor-enzyme, aliquots of the enzyme were incubated at 37 °C without and with the inhibitor at a concentration 10 times higher than its IC 50. The enzyme […]
min, the aliquots were diluted 10-fold or 100-fold into the substrate concentration and assay buffer used for the IC50 determination. The dissociation of the enzyme-inhibitor complex was monitored by substrate hydrolysis over time. Blue lines represent the control where no inhibitor was present. Pink lines represent the assay with inhibitor.

Setting [4] is: Trypsin-3 K1, apparent equilibrium constant of the first step of slow-binding.
Where [5] appears, read: Trypsin-3 KI*, apparent equilibrium constant of the overall process.

In the case of `C#CCCCOC(=O)NC(C1CCN(C(=N)N)CC1)P(=O)(Oc1ccccc1)Oc1ccccc1` (stereo not shown) [41b], in assay [1], the Trypsin-3 kapp is given as 17 × 10^2 ± 142 M^−1 s^−1 and the “Trypsin-3 mechanism of inhibition” value is “irreversible inhibition; also recorded: Irrev”.

With `C#CCCCOC(=O)NC(c1ccc(NC(=N)N)cc1)P(=O)(Oc1ccc(Cl)cc1)Oc1ccc(Cl)cc1` (stereo not shown) [39b, Pent-4-yn-1-yl ((bis(4-chlorophenoxy)phosphoryl)(4-guanidinophenyl)methyl)carbamate], the “uPA mechanism of inhibition” value in assay [2] is recorded as “Irrev”. The “Trypsin-3 mechanism of inhibition” value in assay [1] is listed as “Irrev”. The “uPA jump dilution result” value in assay [3] is “Irrev”.

For the compound `C[C@@H]1NC(=O)N[C@@H]1CCCCCC(=O)NCCOCCOCCOCCn1cc(CCCOC(=O)NC(CCCNC(=N)N)P(=O)(Oc2ccc(Cl)cc2)Oc2ccc(Cl)cc2)nn1` (stereo partly shown) [46b], in assay [2], the uPA kapp was determined as 940 ± 37 M⁻¹ s⁻¹ and the “uPA mechanism of inhibition” value is listed as “Irrev”. Besides, in assay [1], the Trypsin-3 kapp is listed as 92 × 10^2 ± 349 M^−1 s^−1 and the “Trypsin-3 mechanism of inhibition” value is given as “Irrev”.

Turning to `C#CCCCOC(=O)NC(CCCNC(=N)N)P(=O)(Oc1ccc(Cl)cc1)Oc1ccc(Cl)cc1` (stereo not shown) [33b], in assay [2], the uPA kapp was 15 × 10^2 ± 12 M^−1 s^−1 and the “uPA mechanism of inhibition” value is reported as “irreversibility; also recorded: Irrev”. Moreover, in assay [1], the Trypsin-3 kapp was 35 × 10^2 ± 40 M^−1 s^−1 and the “Trypsin-3 mechanism of inhibition” value was “irreversibility; also recorded: Irrev”. Also, the “uPA jump dilution result” value in assay [3] is listed as “Irrev”.

In the case of `C#CCCCOC(=O)NC(Cc1ccc(NC(=N)N)cc1)P(=O)(Oc1ccc(Cl)cc1)Oc1ccc(Cl)cc1` (stereo not shown) [36b], in assay [2], the uPA kapp is 320000 ± 29000 M⁻¹ s⁻¹ and the “uPA mechanism of inhibition” value is on record as “Irrev”. In addition, the Ki in assay [1] (setting [4]) stood at 8 ± 0.8 nM. Also, in assay [1] (setting [5]), the Ki is 1 ± 0.1 nM. Further, in assay [1], the Trypsin-3 kapp was 29 × 10^3 ± 6499 M^−1 s^−1 and the “Trypsin-3 mechanism of inhibition” value is “Rev”. For the same compound, the “uPA jump dilution result” value in assay [3] is reported as “Irrev”.

`CC(=O)Nc1ccc(OP(=O)(Oc2ccc(NC(C)=O)cc2)C(Cc2ccc(NC(=N)N)cc2)NC(=O)OCCCc2cn(CCOCCOCCOCCNC(=O)CCCCC[C@H]3NC(=O)N[C@H]3C)nn2)cc1` (stereo partly shown) [52b]: in assay [2], the uPA kapp was 38 × 10^3 ± 4175 M^−1 s^−1 and the “uPA mechanism of inhibition” value is “Irrev”. Besides, the Ki in assay [1] (setting [4]) was found to be 17 ± 0.5 nM. The Ki in assay [1] (setting [5]) was 1 nM. Besides, in assay [1], the Trypsin-3 kapp is 86 × 10^3 ± 8250 M^−1 s^−1 and the “Trypsin-3 mechanism of inhibition” value is on record as “Rev”. Further, the “uPA jump dilution result” value in assay [3] is “Irrev”.

Turning to `C#CCCCOC(=O)NC(c1ccc(NC(=N)N)cc1)P(=O)(Oc1ccc(NC(C)=O)cc1)Oc1ccc(NC(C)=O)cc1` (stereo not shown) [38b, Pent-4-yn-1-yl ((bis(4-acetamidophenoxy)phosphoryl)(4-guanidinophenyl)methyl) carbamate], in assay [2], the uPA kapp worked out at 215 ± 7 M⁻¹ s⁻¹ and the “uPA mechanism of inhibition” value is recorded as “Irrev”. Besides, in assay [1], the Trypsin-3 kapp amounted to 358 ± 6 M⁻¹ s⁻¹ and the “Trypsin-3 mechanism of inhibition” value is “Irrev”. Further, the “uPA jump dilution result” value in assay [3] is “Irrev”.

On to `C[C@@H]1NC(=O)N[C@@H]1CCCCCC(=O)NCCOCCOCCOCCn1cc(CCCOC(=O)NC(Cc2ccc(NC(=N)N)cc2)P(=O)(Oc2ccccc2)Oc2ccccc2)nn1` (stereo partly drawn) [50b, 3-(1-(18-((4R,5S)-5-methyl-2-oxoimidazolidin-4-yl)-13-oxo-3,6,9-trioxa-12-azaoctadecyl)-1H-1,2,3-triazol-4-yl)propyl (1-(diphenoxyphosphoryl)-2-(4-guanidinophenyl)ethyl)carbamate trifluoroacetate salt], for which, in assay [2], the uPA kapp turned out to be 33000 ± 12000 M⁻¹ s⁻¹ and the “uPA mechanism of inhibition” value is given as “Irrev”. The Ki in assay [1] (setting [4]) was found to be 98 ± 22 nM. Also, in assay [1] (setting [5]), the Ki amounted to 3 ± 0.2 nM. In addition, in assay [1], the Trypsin-3 kapp was 49 × 10^3 ± 2979 M^−1 s^−1 and the “Trypsin-3 mechanism of inhibition” value was “Rev”. Besides, the “uPA jump dilution result” value in assay [3] is on record as “Irrev”.

On to `C#CCCCOC(=O)NC(c1ccc(NC(=N)N)cc1)P(=O)(Oc1ccccc1)Oc1ccccc1.O=C(O)C(F)(F)F` (stereo not shown) [37b, Pent-4-yn-1-yl ((diphenoxyphosphoryl)(4-guanidinophenyl)methyl)carbamate trifluoroacetate salt], for which, in assay [2], the uPA kapp was 124 ± 23 M⁻¹ s⁻¹ and the “uPA mechanism of inhibition” value was “Irrev”. Besides, in assay [1], the Trypsin-3 kapp was 293 ± 34 M⁻¹ s⁻¹ and the “Trypsin-3 mechanism of inhibition” value is recorded as “Irrev”. In assay [3], the “uPA jump dilution result” value was “Irrev”.

In the case of `C[C@@H]1NC(=O)N[C@@H]1CCCCCC(=O)NCCOCCOCCOCCn1cc(CCCOC(=O)NC(c2ccc(NC(=N)N)cc2)P(=O)(Oc2ccc(Cl)cc2)Oc2ccc(Cl)cc2)nn1` (stereo partly shown) [57b], in assay [2], the uPA kapp was 25 × 10^2 ± 11 M^−1 s^−1 and the “uPA mechanism of inhibition” value is “Irrev”. In assay [1], the Trypsin-3 kapp is given as 13 × 10^2 ± 340 M^−1 s^−1 and the “Trypsin-3 mechanism of inhibition” value is listed as “Irrev”. For the same compound, the “uPA jump dilution result” value in assay [3] is on record as “Irrev”.

With `C#CCCCOC(=O)NC(CCCNC(=N)N)P(=O)(Oc1ccccc1)Oc1ccccc1` (stereo not shown) [32b], in assay [2], the uPA kapp came out at 41 ± 4 M⁻¹ s⁻¹ and the “uPA mechanism of inhibition” value is “Irrev”. Besides, in assay [1], the Trypsin-3 kapp is 18 × 10^2 ± 66 M^−1 s^−1 and the “Trypsin-3 mechanism of inhibition” value is given as “Irrev”. The “selectivity for trypsin-3 over the other tested proteases” value in assay [1] (based on the kapp values) is “at least 30 fold”. In assay [3], the “uPA jump dilution result” value is recorded as “Irrev”.

As to `C[C@@H]1NC(=O)N[C@@H]1CCCCCC(=O)NCCOCCOCCOCCn1cc(CCCOC(=O)NC(CCCNC(=N)N)P(=O)(Oc2ccccc2)Oc2ccccc2)nn1` (stereo partly shown) [45b], in assay [1], the Trypsin-3 kapp was 17 × 10^2 ± 122 M^−1 s^−1 and the “Trypsin-3 mechanism of inhibition” value was “Irrev”.
